In patent publication US10138510B2, “Dual labeling methods for measuring cellular proliferation” (LIFE TECHNOLOGIES CORPORATION, priority 2008, dated 2018):

Legend:
Format in all cases: cell-based
[1] = system: newly synthesized DNA of cells; assay: Simultaneous EdU and BrdU pulse, incorporation into DNA detected by flow cytometry; details: for signal detected after simultaneous pulse: simultaneous pulse of EdU 20 μM and BrdU 10 μM, FIG. 3B
Excerpt: FIG. 3A-1, FIG. 3A-2 and FIG. 3A-3 present a series of graphs showing populations of cells treated with a first pulse label of EdU (10 μm) and a second pulse label of BrdU (10 μm) as detected by flow cytometry. The first graph (FIG. 3A-1) is divided into four quadrants with the first quadrant (Q1) located in the upper left hand corner, the second quadrant (Q2) located in the upper right hand corner, the third quadrant (Q3) located in the lower left hand corner, and the fourth quadrant (Q4) located in the lower right hand corner. Populations of cells in quadrant Q3 (lower left) are negative for both EdU (first pulse) and BrdU (second pulse). Populations of cells in quadrant Q2 (upper right) are positive for both EdU (first pulse) and BrdU (second pulse). FIG. 3A-2 is a graph of EdU vs. DNA cell cycle with gating P5>P1. […] FIG. 3B presents a graph showing populations of cells treated with simultaneous pulse of EdU at a concentration of 20 μM and BrdU at a concentration of 10 μM as detected by flow cytometry. The graph is divided into four quadrants with the first quadrant (Q1) located in the upper left hand corner, the second quadrant (Q2) located in the upper right hand corner, the third quadrant (Q3) located in the lower left hand corner, and the fourth quadrant (Q4) located in the lower right hand corner. Populations of cells in quadrant Q3 (lower left) are negative for both EdU and BrdU. Populations of cells in quadrant Q2 (upper right) are positive for both EdU and BrdU.
FIG. 5A, FIG. 5B, FIG. 5C and FIG. 5D present a series of graphs showing that when cells are treated with EdU and BrdU simultaneously, only a population of DNA labeled with BrdU is detected by flow cytometry. […] The third and fourth graphs (FIGS. 5C and 5D, respectively) show the dual parameter plot of fluorescent nucleotide label vs. DNA cell cycle treated with EdU and BrdU simultaneously. Only BrdU was incorporated into cells treated simultaneously with EdU and BrdU, as shown in the third and fourth graphs. […]

[2] = system: TF-1a human erythroblast cells; assay: Dual pulse EdU/BrdU labeling of cellular proliferation with varying GM-CSF, flow cytometry
Procedure: A standard method of preparing cultured cells for the measurement of newly synthesized DNA (cellular proliferation) is set up according to known conditions for cells to be actively growing by providing the proper media and nutrient requirements. In the present example, TF-1a human erythroblast cell cultures were diluted one to four to a density of 2×10^5 cells/ml. Culture media contains varying amounts of GM-CSF, or granulocyte-macrophage colony-stimulating factor, at amounts equal to full (2 ng/ml) or ¼ (0.5 ng/ml) recommended concentration of GM-CSF, and no GM-CSF. After these cells had been growing 18 hours, the first nucleoside analog, EdU, was added at 20 μM, a concentration appropriate for incorporation in the DNA of cells undergoing DNA synthesis. The cells were grown in the presence of EdU for three hours. After initial period of growth and without the removal of EdU through the washing of the cells in fresh media, an appropriate amount of the competitive nucleoside analog, BrdU, was added at a 10 μM concentration, and GM-CSF was added at the same time as the BrdU in amounts to equal the full amount recommended for GM-CSF concentration of 2 ng/ml or kept at the same initial concentration of GM-CSF. The cells were grown for six hours. The cells were then harvested, washed, fixed with 70% ice-cold ETOH and stored at 4° C. until use. The cells were then washed and resuspended in 4M HCL for 20 minutes at room temperature. A phosphate/critric acid buffer was added, and the cells washed twice and resuspended in 0.1% TritonX/1% BSA/PBS at 1×10^7/ml. Then, labeling of the EdU was performed by adding click chemistry based reagents, including a solution comprised of CuSO4 in Tris-buffered saline and Alexa Fluor® 647-azide (650 nm excitation maxima/670 nm emission maxima) (Molecular Probes™/Invitrogen™, Carlsbad, Calif.). The cells were then washed with 0.1% TritonX/1% BSA/PBS. After this, labeling of the BrdU was performed using the anti-BrdU antibody FITC conjugate (494 nm excitation maxima/518 nm emission maxima) (Exalpha Biologicals, Inc., Maynard Calif.). To detect DNA content, a nucleic acid dye, DAPI (358 nm excitation maxima/461 nm emission maxima) (Molecular Probes™/Invitrogen™, Carlsbad, Calif.) was added. Detection of the three labels was performed by flow cytometry. To detect the BrdU label, 488 nm excitation was used, with a 530/30 nm bandpass. To detect the EdU label, 633 nm excitation was used, with a 660/20 nm bandpass. To detect DNA content, 355 nm excitation was used, with a 450/50 nm bandpass.

[3] = system: Jurkat T-cell lymphocyte cells; assay: Dual pulse EdU/BrdU labeling of cellular proliferation after colchicine cell cycle block, flow cytometry
Procedure: A standard method of preparing cultured cells for the measurement of newly synthesized DNA (cellular proliferation) is set up according to known conditions for cells to be actively growing by providing the proper media and nutrient requirements. In the present example, Jurkat T-cell lymphocyte cell cultures were diluted one to four to a density of 2×10^5 cells/ml. The cultures were treated with a cell cycle blocking agent, colchicine, which stops proliferation at the G2M stage of the cell cycle, at concentrations of 0, 32 nM, 75 nM, 125 nM, 250 nM, 500 nM and 1 μM for 18 hours. To each condition, the first nucleoside analog, EdU, was then added at 10 μM, a concentration appropriate for incorporation in the DNA of cells undergoing DNA synthesis. The cells were grown in the presence of EdU for one hour. The cells were then centrifuged to pellet the cells and remove the media with blocking agent, and cells had replacement of fresh media. The cell cultures were allowed to recover for two hours before an appropriate amount of the second nucleoside analog, BrdU, was added at a 10 μM concentration, and the cells were grown for one hour. The cells were then harvested, washed, fixed with 70% ice-cold ETOH and stored at 4° C. until use. The cells were then washed and resuspended in 4M HCL for 20 minutes at room temperature. A phosphate/critric acid buffer was added, and the cells washed twice and resuspended in 0.1% TritonX/1% BSA/PBS at 1×10^7/ml. Then, labeling of the EdU was performed by adding click chemistry based reagents, including a solution comprised of CuSO4 in Tris-buffered saline and Alexa Fluor® 647-azide (650 nm excitation maxima/670 nm emission maxima) (Molecular Probes™/Invitrogen™, Carlsbad, Calif.). The cells were then washed with 0.1% TritonX/1% BSA/PBS. […]
A series of result graphs labeled FIGS. 12-1A, 12-1B, 12-1C, 12-1D, 12-1E, 12-2F, 12-2G, 12-2H, 12-2I and 12-2J show populations of cells treated with a first pulse label of EdU (20 μM) and a second pulse label of BrdU (10 μm) as detected by flow cytometry. […]

[4] = GM-CSF 0.5 ng/ml with EdU pulse, 0.5 ng/ml with BrdU pulse
[5] = GM-CSF 0.5 ng/ml with EdU pulse, 2 ng/ml with BrdU pulse
[6] = GM-CSF 2 ng/ml (control) with EdU pulse, 2 ng/ml (control) with BrdU pulse, EdU 20 μM 3 h, BrdU 10 μM 6 h
[7] = no GM-CSF with EdU pulse, GM-CSF 2 ng/ml with BrdU pulse

C#Cc1cn([C@H]2C[C@H](O)[C@@H](CO)O2)c(=O)[nH]c1=O [EdU, 5-ethynyl 2′-deoxyuridine]
signal detected after simultaneous pulse [1]: no signal detected

GM-CSF: granulocyte-macrophage colony-stimulating factor, growth factor in TF-1a culture media
proliferative recovery of cells ([2]; 0.5 ng/ml GM-CSF, addition of GM-CSF to 2 ng/ml with the BrdU pulse): does not show any proliferative recovery | % BrdU Pos [2, 4]: 66.3% | % EdU Pos [2, 4]: 57% | % BrdU Pos [2, 5]: 65.1% | % EdU Pos [2, 5]: 57.5% | % BrdU Pos [2, 6]: 72.2% | % EdU Pos [2, 6]: 53.9% | proliferation over control ([2]; dual pulse with 0.5 ng/ml GM-CSF vs 2 ng/ml control): only a slight decrease of proliferation over control | % BrdU Pos [2, 7]: 53% | % EdU Pos [2, 7]: 42.3% | proliferative recovery of cells (BrdU positivity) ([2]; no GM-CSF with EdU pulse, GM-CSF added with just the BrdU pulse): some proliferative recovery

O=c1[nH]c(=O)n([C@H]2C[C@H](O)[C@@H](CO)O2)cc1Br [BrdU, 5-bromo 2′-deoxyuridine]
incorporation into DNA in the presence of both nucleoside analogs ([1]; EdU and BrdU added simultaneously, Example 3, FIGS. 5A-5D): only the BrdU analog is incorporated into the DNA | signal detected after simultaneous pulse [1]: only positive signal detected from the BrdU

COc1cc2c(c(OC)c1OC)-c1ccc(OC)c(=O)cc1[C@@H](NC(C)=O)CC2 [colchicine]
proliferation (EdU and BrdU positive events) vs control ([3]; 32 nM colchicine for 18 hours before the first pulse, FIGS. 12-2F to 12-2J): decreased proliferation | proliferation with both pulses of EdU and BrdU ([3]; all colchicine concentrations (32 nM to 1 μM), 18 hours, FIG. 11): decreased proliferation | recovery of proliferation after removal of colchicine (second pulse of BrdU) ([3]; any colchicine concentration, two hours recovery in fresh media): no recovery
